Results on 37 compounds are retold here after the supplement of paper PMC12137928.

The test concerns HCT116. The settings on record: 72 h. The procedure, abridged: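 Four-parameter Hill fits gave IC50 and maximal efficacy. The data were CellTiter-Glo luminescence readings in HCT116 cells, normalized so that vehicle was 0% and positive control was -100%, with pattern correction afterwards.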

Counter-ions that a name gives are not always drawn. A value given as a limit tells only on which side of the number the result lay.

`Cc1ccccc1N1CCN(CCc2nnc3n2CCCC3)CC1` [Dapiprazole hydrochloride]: the IC50 cell viability by setting is: (ICRF193 0 nM) over 45.8 µM; (ICRF193 200 nM) over 45.8 µM.

As to `CCCCCCCCCC(=O)O` [Decanoic acid], the IC50 cell viability by setting is: (ICRF193 0 nM) over 45.8 µM; (ICRF193 200 nM) over 45.8 µM.

On to `CO[C@H]1C[C@@H]2CC[C@@H](C)[C@@](O)(O2)C(=O)C(=O)N2CCCC[C@H]2C(=O)O[C@H]([C@H](C)C[C@@H]2CC[C@@H](OCCO)[C@H](OC)C2)CC(=O)[C@H](C)/C=C(\C)[C@@H](O)[C@@H](OC)C(=O)[C@H](C)C[C@H](C)/C=C/C=C/C=C/1C` [Everolimus], for which the IC50 cell viability was over 45.8 µM (ICRF193 0 nM) and over 45.8 µM (ICRF193 200 nM).

On to `CC(C)[C@H]1C(=O)N[C@@H](CCCNC(=N)N)C(=O)NCC(=O)N[C@@H](CC(=O)O)C(=O)N[C@H](Cc2ccccc2)C(=O)N1C` [Cilengitide], for which the IC50 cell viability is over 45.8 µM (ICRF193 0 nM) and over 45.8 µM (ICRF193 200 nM).

As to `CC(C)(C#N)c1cc(Cn2cncn2)cc(C(C)(C)C#N)c1` [Anastrozole], the IC50 cell viability by setting is: (ICRF193 0 nM) over 45.8 µM; (ICRF193 200 nM) over 45.8 µM.

For the compound `CC(C)(Oc1ccc(C2CC2(Cl)Cl)cc1)C(=O)O` (centres undefined) [Ciprofibrate], the IC50 cell viability runs as follows: (ICRF193 0 nM) over 45.8 µM; (ICRF193 200 nM) over 45.8 µM.

Compound `CCCNC(C)C(=O)Nc1ccccc1C` (centres undefined) [Prilocaine hydrochloride] had an IC50 cell viability (ICRF193 0 nM) of over 45.8 µM and an IC50 cell viability (ICRF193 200 nM) of over 45.8 µM.

For `O=C(NCCN1CCOCC1)c1ccc(Cl)cc1` [Moclobemide], the IC50 cell viability runs as follows: (ICRF193 0 nM) over 45.8 µM; (ICRF193 200 nM) over 45.8 µM.

On to `N[C@@H](Cc1cc(I)c(Oc2cc(I)c(O)c(I)c2)c(I)c1)C(=O)O` [L-Thyroxine], for which the IC50 cell viability is over 45.8 µM (ICRF193 0 nM) and over 45.8 µM (ICRF193 200 nM).

For the compound `C[C@@H]1NC(=O)[C@@H]2CCCN2C(=O)[C@H](CC(N)=O)NC(=O)[C@@H]2CSSC[C@H](N)C(=O)N[C@H]3CSSC[C@H](NC1=O)C(=O)N[C@@H]([C@@H](C)O)C(=O)NCC(=O)N[C@H](C(=O)N[C@@H](Cc1ccc(O)cc1)C(=O)O)CSSC[C@H](NC(=O)[C@H](Cc1ccc(O)cc1)NC(=O)[C@H](CCC(=O)O)NC3=O)C(=O)N2` [LINACLOTIDE (1 mg/ml)], the IC50 cell viability (ICRF193 0 nM) was over 45.8 µM and the IC50 cell viability (ICRF193 200 nM) was over 45.8 µM.

Regarding `Cl.NCCCC[C@H](N)C(=O)O` [L-(+)-Lysine monohydrochloride], the IC50 cell viability (ICRF193 0 nM) is over 45.8 µM and the IC50 cell viability (ICRF193 200 nM) was over 45.8 µM.

On to `Cc1cc(C)nc(NS(=O)(=O)c2ccc(N)cc2)n1` [Sulfamethazine], for which the IC50 cell viability runs as follows: (ICRF193 0 nM) over 45.8 µM; (ICRF193 200 nM) over 45.8 µM.

For `Oc1cc(O)c2c(c1)O[C@H](c1ccc(O)c(O)c1)[C@H](O)C2` [(-)-Epicatechin], the IC50 cell viability is over 45.8 µM (ICRF193 0 nM) and over 45.8 µM (ICRF193 200 nM).

`CC[C@H]1OC(=O)[C@H](C)[C@@H](O[C@H]2C[C@@](C)(OC)[C@@H](O)[C@H](C)O2)[C@H](C)[C@@H](O[C@@H]2O[C@H](C)C[C@H](N(C)C)[C@H]2O)[C@](C)(O)C[C@@H](C)/C(=N\OCOCCOC)[C@H](C)[C@@H](O)[C@]1(C)O` [Roxithromycin]: the IC50 cell viability reads like this: (ICRF193 0 nM) over 45.8 µM; (ICRF193 200 nM) over 45.8 µM.

In the case of `COC(=O)[C@@H]1CC2=CC(=O)CC[C@]2(C)[C@@]23O[C@@H]2C[C@@]2(C)[C@@H](CC[C@@]24CCC(=O)O4)[C@H]13` [Eplerenone], the IC50 cell viability runs as follows: (ICRF193 0 nM) over 45.8 µM; (ICRF193 200 nM) over 45.8 µM.

Turning to `O=c1oc2c(O)c(O)cc3c(=O)oc4c(O)c(O)cc1c4c23` [Ellagic acid], the IC50 cell viability is, setting by setting: (ICRF193 0 nM) over 45.8 µM; (ICRF193 200 nM) over 45.8 µM.

For the compound `COc1cc2nc(N3CCN(C(=O)C4CCCO4)CC3)nc(N)c2cc1OC` (centres undefined) [Terazosin hydrochloride], the IC50 cell viability by setting is: (ICRF193 0 nM) over 45.8 µM; (ICRF193 200 nM) over 45.8 µM.

As for `C=Cc1ccccc1` [Styrene], the IC50 cell viability runs as follows: (ICRF193 0 nM) over 45.8 µM; (ICRF193 200 nM) over 45.8 µM.

For `COC(F)(F)C(Cl)Cl` [Methoxyflurane], the IC50 cell viability is, setting by setting: (ICRF193 0 nM) over 45.8 µM; (ICRF193 200 nM) over 45.8 µM.

Take `O=C(CCCN1CCC2(CC1)C(=O)NCN2c1ccccc1)c1ccc(F)cc1` [Spiperone]: the IC50 cell viability (ICRF193 0 nM) was over 45.8 µM and the IC50 cell viability (ICRF193 200 nM) is over 45.8 µM.

For the compound `CCCc1ccc(C(=O)O)cc1` [4-Propylbenzoic acid], the IC50 cell viability is over 45.8 µM (ICRF193 0 nM) and over 45.8 µM (ICRF193 200 nM).

In the case of `CCN(CC)Cc1nccn1-c1ccc([N+](=O)[O-])cc1C(=O)c1ccccc1Cl` [Nizofenone], the IC50 cell viability reads like this: (ICRF193 0 nM) over 45.8 µM; (ICRF193 200 nM) over 45.8 µM.

For the compound `CN(CCCCCCN(C)C(=O)Oc1ccc[n+](C)c1)C(=O)Oc1ccc[n+](C)c1` [Distigmine Bromide], the IC50 cell viability runs as follows: (ICRF193 0 nM) over 45.8 µM; (ICRF193 200 nM) over 45.8 µM.

Compound `CCN1CCC[C@H]1CNC(=O)c1cc(S(N)(=O)=O)ccc1OC` [Levosulpiride] came in with an IC50 cell viability (ICRF193 0 nM) of over 45.8 µM and an IC50 cell viability (ICRF193 200 nM) of over 45.8 µM.

Turning to `Cc1nc(NS(=O)(=O)c2ccc(N)cc2)nc(C)c1Br` [Sulfabromomethazine], the IC50 cell viability was over 45.8 µM (ICRF193 0 nM) and over 45.8 µM (ICRF193 200 nM).

Regarding `Oc1ccc(O)cc1` [Hydroquinone], the IC50 cell viability reads like this: (ICRF193 0 nM) over 45.8 µM; (ICRF193 200 nM) over 45.8 µM.

For `CC(=O)OCC(=O)[C@@]1(O)CC[C@H]2[C@@H]3C[C@H](C)C4=CC(=O)C=C[C@]4(C)[C@H]3[C@@H](O)C[C@@]21C` [Methylprednisolone acetate], the IC50 cell viability is, setting by setting: (ICRF193 0 nM) over 45.8 µM; (ICRF193 200 nM) over 45.8 µM.

`O=P(O)(O)O[C@H]1[C@H](OP(=O)(O)O)[C@@H](OP(=O)(O)O)[C@H](OP(=O)(O)O)[C@@H](OP(=O)(O)O)[C@H]1OP(=O)(O)O` [Phytic acid]: the IC50 cell viability by setting is: (ICRF193 0 nM) over 45.8 µM; (ICRF193 200 nM) over 45.8 µM.

`C[C@]12CC[C@@H]3c4ccc(OS(=O)(=O)O)cc4CC[C@H]3[C@@H]1CCC2=O` [ESTROPIPATE]: the IC50 cell viability is over 45.8 µM (ICRF193 0 nM) and over 45.8 µM (ICRF193 200 nM).

Take `Cc1cccc(C)c1NC(=O)c1cc(S(N)(=O)=O)c(Cl)cc1O` [Xipamide]: the IC50 cell viability reads like this: (ICRF193 0 nM) over 45.8 µM; (ICRF193 200 nM) over 45.8 µM.

As to `COc1ccccc1O` [Guaiacol], the IC50 cell viability was over 45.8 µM (ICRF193 0 nM) and over 45.8 µM (ICRF193 200 nM).

For the compound `CCN(CC)C(=O)N1CCN(C)CC1` [DIETHYLCARBAMAZINE CITRATE], the IC50 cell viability was over 45.8 µM (ICRF193 0 nM) and over 45.8 µM (ICRF193 200 nM).

As for `O=C(O)c1cn(C2CC2)c2cc(N3CCNCC3)c(F)cc2c1=O` [Ciprofloxacin], the IC50 cell viability by setting is: (ICRF193 0 nM) over 45.8 µM; (ICRF193 200 nM) over 45.8 µM.

`C[N+](C)(C)CCOC(=O)CCC(=O)OCC[N+](C)(C)C` [Succinylcholine chloride]: the IC50 cell viability was over 45.8 µM (ICRF193 0 nM) and over 45.8 µM (ICRF193 200 nM).

Consider `CCc1ccc(Nc2c(F)c(F)cc(F)c2F)c(CC(=O)O)c1` [ROBENACOXIB], for which the IC50 cell viability runs as follows: (ICRF193 0 nM) over 45.8 µM; (ICRF193 200 nM) over 45.8 µM.

In the case of `CC(C)[N+]1(C)[C@@H]2CC[C@H]1C[C@@H](OC(=O)C(CO)c1ccccc1)C2` (some centres undefined) [Ipratropium bromide], the IC50 cell viability is over 45.8 µM (ICRF193 0 nM) and over 45.8 µM (ICRF193 200 nM).

Consider `CC(C)NCC(O)c1ccc(O)c(O)c1` (centres undefined) [Isoprenaline hydrochloride], for which the IC50 cell viability was over 45.8 µM (ICRF193 0 nM) and over 45.8 µM (ICRF193 200 nM).
